Experimental data reported in article doi:10.1101/2022.11.14.516475v2 (biorxiv, 2022).

Tests used:
[1] = target: T1, D2 (Homo sapiens, UniProt P14416); type: binding; design: gene DRD2; full length; pcDNA3.1 mutants); DiscoverX beta-galactosidase fragment fusion for beta-arrestin assay; conditions: wild-type control
[2] = target: T2, SNAP-tagged human D2SR (SNAP-D2RS) (Homo sapiens, UniProt P14416); test: TR-FRET association kinetics; type: binding; conditions: labelled compound; read-out: Kd (koff / kon)
T2 construct: gene DRD2
T2 sequence (P14416 1-414 isoform P14416-2): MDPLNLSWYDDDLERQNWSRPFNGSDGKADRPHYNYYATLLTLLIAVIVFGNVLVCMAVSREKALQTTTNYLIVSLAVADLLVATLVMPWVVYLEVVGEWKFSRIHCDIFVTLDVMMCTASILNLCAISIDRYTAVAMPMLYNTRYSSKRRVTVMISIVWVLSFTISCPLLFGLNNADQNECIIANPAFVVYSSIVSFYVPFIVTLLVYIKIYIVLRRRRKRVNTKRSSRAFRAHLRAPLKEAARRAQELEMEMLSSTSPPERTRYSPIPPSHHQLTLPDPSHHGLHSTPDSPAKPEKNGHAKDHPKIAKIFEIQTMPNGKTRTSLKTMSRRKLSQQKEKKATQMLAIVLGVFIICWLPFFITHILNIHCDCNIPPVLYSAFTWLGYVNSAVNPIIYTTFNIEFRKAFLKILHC

[3] = target: T1, D2; type: cell-based; design: gene DRD2; full length; pcDNA3.1 mutants); DiscoverX beta-galactosidase fragment fusion for beta-arrestin assay; conditions: agonist
[4] = target: T3, hERG K+ channel (Homo sapiens, UniProt Q12809); test: automated whole-cell patch clamp, HEK293, tail current; type: cell-based; conditions: hek293 cells
T3 construct: gene KCNH2; expressed in HEK293 cells (Cyprotex), automated patch clamp
T3 sequence (Q12809 whole entry): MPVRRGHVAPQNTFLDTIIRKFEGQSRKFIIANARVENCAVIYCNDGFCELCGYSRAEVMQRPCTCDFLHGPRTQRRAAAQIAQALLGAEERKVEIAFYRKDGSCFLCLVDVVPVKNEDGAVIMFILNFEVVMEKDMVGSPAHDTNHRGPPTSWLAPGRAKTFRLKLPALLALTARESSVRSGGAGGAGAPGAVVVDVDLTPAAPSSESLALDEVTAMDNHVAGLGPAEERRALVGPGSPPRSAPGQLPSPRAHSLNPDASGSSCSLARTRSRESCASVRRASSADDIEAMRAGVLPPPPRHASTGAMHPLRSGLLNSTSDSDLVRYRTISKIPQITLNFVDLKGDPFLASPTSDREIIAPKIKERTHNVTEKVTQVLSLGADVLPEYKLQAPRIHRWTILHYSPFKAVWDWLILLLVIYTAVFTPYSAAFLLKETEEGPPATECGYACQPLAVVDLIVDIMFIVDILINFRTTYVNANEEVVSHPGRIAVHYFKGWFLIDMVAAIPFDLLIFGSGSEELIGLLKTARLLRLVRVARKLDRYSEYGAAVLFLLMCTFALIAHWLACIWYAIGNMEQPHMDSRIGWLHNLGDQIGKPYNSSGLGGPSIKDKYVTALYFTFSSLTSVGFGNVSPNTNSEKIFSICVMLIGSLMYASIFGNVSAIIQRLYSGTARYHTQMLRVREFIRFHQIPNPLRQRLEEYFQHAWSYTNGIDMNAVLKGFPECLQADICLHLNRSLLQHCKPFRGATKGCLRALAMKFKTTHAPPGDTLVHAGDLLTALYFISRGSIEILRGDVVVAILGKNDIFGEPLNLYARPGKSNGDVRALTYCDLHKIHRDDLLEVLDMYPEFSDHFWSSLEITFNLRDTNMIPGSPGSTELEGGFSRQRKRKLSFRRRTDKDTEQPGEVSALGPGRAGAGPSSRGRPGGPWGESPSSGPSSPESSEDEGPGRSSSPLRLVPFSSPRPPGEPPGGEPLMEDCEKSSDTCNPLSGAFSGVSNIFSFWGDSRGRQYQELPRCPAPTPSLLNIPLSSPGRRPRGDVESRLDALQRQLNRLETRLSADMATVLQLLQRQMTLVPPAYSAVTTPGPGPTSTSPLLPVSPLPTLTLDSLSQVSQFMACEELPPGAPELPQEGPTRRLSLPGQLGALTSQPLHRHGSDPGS

[5] = target: T4, D3 (Homo sapiens, UniProt P35462); test: biochemical; design: PDSP radioligand binding competition, single concentration, % inhibition of specific binding; conditions: read-out: ML321 (10 µM) % Inhibition
T4 construct: gene DRD3
T4 sequence (P35462 whole entry): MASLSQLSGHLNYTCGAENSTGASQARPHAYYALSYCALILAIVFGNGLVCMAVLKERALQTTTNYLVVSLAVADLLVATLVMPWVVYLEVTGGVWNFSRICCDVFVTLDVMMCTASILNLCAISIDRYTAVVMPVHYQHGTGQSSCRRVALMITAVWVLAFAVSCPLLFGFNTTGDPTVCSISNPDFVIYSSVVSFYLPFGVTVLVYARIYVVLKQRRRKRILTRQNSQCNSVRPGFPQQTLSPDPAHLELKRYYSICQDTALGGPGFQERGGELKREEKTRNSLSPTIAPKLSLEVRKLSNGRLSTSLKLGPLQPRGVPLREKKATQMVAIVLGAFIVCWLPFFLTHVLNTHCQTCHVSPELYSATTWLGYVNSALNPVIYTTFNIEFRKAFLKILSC
Protocol: ML321 was screened using the National Institute of Mental Health Psychoactive Drug Screening Program (PDSP) directed by Dr. Bryan L. Roth (University of North Carolina, Chapel Hill, NC). For experimental details including radioligands used and associated Kd values for each individual target, please refer to the PDSP website http://pdsp.med.unc.edu/. […] Assays were performed in triplicate. To further assess ML321 selectivity amongst a larger group of drug targets, we used the NIMH Psychoactive Drug Screening Program (PDSP), which utilizes radioligand binding competition assays for 46 unique GPCRs, transporters and ion channels. For screening, a single high concentration (10 µM) of ML321 was used to compete for radioligand binding to the PDSP targets (Figure 1C).

[6] = target: T2, SNAP-tagged human D2SR (SNAP-D2RS); test: biochemical; type: CHO cell membranes; design: TR-FRET competition kinetic binding with PPHT-red, Motulsky-Mahan fit; conditions: read-out: koff (min^-1)
[7] = target: T5, 5-HT2C serotonin receptor (Homo sapiens, UniProt P28335); test: PDSP radioligand binding competition; conditions: read-out: % inhibition at 10 μM
T5 construct: gene HTR2C
T5 sequence (P28335 33-458): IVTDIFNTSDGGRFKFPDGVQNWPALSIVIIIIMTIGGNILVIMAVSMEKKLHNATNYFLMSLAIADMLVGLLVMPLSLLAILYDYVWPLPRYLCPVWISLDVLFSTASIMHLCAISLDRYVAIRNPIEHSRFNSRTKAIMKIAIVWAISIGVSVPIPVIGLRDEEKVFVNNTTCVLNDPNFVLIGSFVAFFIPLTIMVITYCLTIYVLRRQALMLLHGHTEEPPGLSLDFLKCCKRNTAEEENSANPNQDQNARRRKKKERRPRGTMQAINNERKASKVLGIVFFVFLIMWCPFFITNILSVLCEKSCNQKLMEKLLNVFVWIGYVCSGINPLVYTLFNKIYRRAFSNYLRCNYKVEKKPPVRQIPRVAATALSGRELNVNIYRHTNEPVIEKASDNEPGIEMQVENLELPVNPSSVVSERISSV

[8] = target: T6, 5-HT7 serotonin receptor (Homo sapiens, UniProt P34969); test: PDSP radioligand binding competition; conditions: read-out: % inhibition at 10 μM
T6 construct: gene HTR7
T6 sequence (P34969 whole entry): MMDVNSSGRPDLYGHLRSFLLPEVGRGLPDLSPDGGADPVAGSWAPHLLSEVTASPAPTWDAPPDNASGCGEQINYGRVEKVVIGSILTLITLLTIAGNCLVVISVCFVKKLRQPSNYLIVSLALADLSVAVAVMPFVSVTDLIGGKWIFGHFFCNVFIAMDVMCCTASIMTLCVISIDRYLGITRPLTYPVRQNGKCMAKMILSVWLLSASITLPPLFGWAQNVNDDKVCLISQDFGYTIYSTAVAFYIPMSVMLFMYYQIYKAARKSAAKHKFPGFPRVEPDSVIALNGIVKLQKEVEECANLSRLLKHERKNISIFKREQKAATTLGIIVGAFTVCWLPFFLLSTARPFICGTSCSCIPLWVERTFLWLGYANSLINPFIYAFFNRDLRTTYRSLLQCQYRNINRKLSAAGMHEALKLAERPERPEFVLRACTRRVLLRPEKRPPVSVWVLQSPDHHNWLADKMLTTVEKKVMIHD

[9] = target: T1, D2; test: biochemical; design: gene DRD2; PDSP radioligand binding competition, single concentration, % inhibition of specific binding; conditions: read-out: ML321 (10 µM) % Inhibition
[10] = target: T7, 5-HT2A serotonin receptor (Homo sapiens, UniProt P28223); test: DiscoverX gpcrMAX beta-arrestin recruitment, antagonist mode; type: cell-based; conditions: read-out: % inhibition at 10 μM
T7 construct: gene HTR2A; DiscoverX gpcrMAX PathHunter beta-arrestin cell line, enzyme-fragment tagged receptor
T7 sequence (P28223 whole entry, the tested form may be a part): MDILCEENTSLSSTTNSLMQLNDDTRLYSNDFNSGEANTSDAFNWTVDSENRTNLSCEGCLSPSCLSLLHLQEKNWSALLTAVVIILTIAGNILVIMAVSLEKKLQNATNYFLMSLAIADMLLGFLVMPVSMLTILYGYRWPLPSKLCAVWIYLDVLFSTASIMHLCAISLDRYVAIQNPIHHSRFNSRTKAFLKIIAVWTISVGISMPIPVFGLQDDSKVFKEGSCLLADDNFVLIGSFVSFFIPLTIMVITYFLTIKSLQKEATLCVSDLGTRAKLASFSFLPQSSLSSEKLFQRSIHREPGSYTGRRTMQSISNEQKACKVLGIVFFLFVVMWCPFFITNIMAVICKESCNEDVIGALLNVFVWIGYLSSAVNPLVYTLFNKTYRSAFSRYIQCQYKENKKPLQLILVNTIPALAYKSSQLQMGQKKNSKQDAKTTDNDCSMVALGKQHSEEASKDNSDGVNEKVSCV

T1 sequence (P14416 whole entry, the tested form may be a part): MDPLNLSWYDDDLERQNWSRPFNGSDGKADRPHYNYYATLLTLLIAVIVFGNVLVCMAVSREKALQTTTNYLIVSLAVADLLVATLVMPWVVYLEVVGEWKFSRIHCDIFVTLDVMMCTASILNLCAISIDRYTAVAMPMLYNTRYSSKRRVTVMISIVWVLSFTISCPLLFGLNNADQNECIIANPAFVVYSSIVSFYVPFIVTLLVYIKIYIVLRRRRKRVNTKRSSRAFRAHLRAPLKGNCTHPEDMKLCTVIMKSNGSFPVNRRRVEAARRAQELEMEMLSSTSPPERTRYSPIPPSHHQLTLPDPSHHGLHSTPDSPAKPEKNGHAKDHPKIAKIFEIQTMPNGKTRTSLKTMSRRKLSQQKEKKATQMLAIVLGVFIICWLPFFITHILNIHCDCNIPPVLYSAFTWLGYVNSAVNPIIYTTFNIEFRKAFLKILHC

O=C(CCCN1CCC2(CC1)C(=O)NCN2c1ccccc1)c1ccc(F)cc1 [spiperone]
Ki [1]: performed using both ML321 and unlabeled spiperone (as a control) with the wild-type

PPHT-red
Kd [2]: 11.5 ± 0.16 nM

NCCc1ccc(O)c(O)c1 [dopamine]
EC50 [3]: EC50 and IC50 values for dopamine and ML321, respectively, were determined

CN1C(=O)c2ccccc2[S@+]([O-])c2ccc(C(=O)NCCc3cccs3)cc21 [ML321]
IC50 [4]: > 25000 nM | inhibition at 10 µM [5]: 59% | koff [6]: 1.3 min⁻¹ | inhibition at 10 µM [7]: 64% | inhibition at 10 µM [8]: 53% | inhibition at 10 µM [9]: 92% | inhibition at 10 µM [10]: 48%
